pIC50: −log10 of the molar value. Active and inactive are the calls of the source. The rule behind the calls is not given here.
System: TLR9-MyD88 CHO cells, cytotoxicity, luminescence
Test: cytotoxicity in TLR9-MyD88 CHO cells, dose response, cytotoxicity control for TLR9-MyD88 binding inhibitor project, cell-based, luminescence (AID 588339)

Structure (SMILES)	pIC50	IC50
C[CH2][Hg][S]c1ccccc1C(=O)O	6.04	–
COc1cc(/C=C/C(=O)/C=C(O)/C=C/c2ccc(O)c(OC)c2)ccc1O	–	34.6 µM (inactive)
